“Also recorded” adds a separate entry of the source.
System: PBMC (peripheral blood mononuclear cells)
Type: cell-based, human
Design: key to IFN-γ response specificity mark (asterisk): *: Peptides that induced response in leprosy patients only, or contact groups (but not in TB or EC groups) appear with an asterisk
Conditions: for IFN-γ response specificity mark (asterisk) / specificity of IFN-γ response (PB and HC versus TB, EC, NEC): PBMC, day 5; for IFN-γ response specificity mark (asterisk): peptide 10 μg/ml, leprosy patients/contacts vs TB and EC groups; for comparison of IFN-γ levels between groups (ANOVA, Tukey post hoc): PB, MB, HC, TB, EC; for specificity of IFN-γ response (PB and HC versus TB, EC, NEC) / IFN-γ responses in groups TB and EC: 10 μg/ml; for IFN-γ responses in groups TB and EC: PBMC of TB patients and endemic controls, day 5, cutoff 125 pg/ml

| Sequence | IFN-γ response specificity mark (asterisk) | further results |
| --- | --- | --- |
| RVSYGSECRSGNCLR [p40, M. leprae ML0008c aa 107-121] | p40* | – |
| KKRLTLLSGAMARRA [p82, M. leprae ML0394c aa 141-155] | p82* | – |
| LDIYTTLARDMAAIP [p71, M. leprae ML1553 proS aa 180-194] | p71* | – |
| LQPYRLLRGGDSEYW [p75, M. leprae ML2177c aa 169-183] | p75* | capacity to discriminate PB patients from exposed healthy individuals (HC): discriminate individuals with known infection by Mycobacterium leprae (patients PB) from those individuals exposed to said microorganism, but healthy; comparison of IFN-γ levels between groups (ANOVA, Tukey post hoc): significantly higher in HC |
| GDVWKSIVHLRSTRH [p81, M. leprae ML0126 aa 180-194] | p81* | – |
| MQEYRGLTSHTPCCR [p70, M. leprae ML1420 aa 93-107] | p70* | – |
| NHAVSSDFKTRSTNT [p54, M. leprae ML2567 aa 72-86] | p54* | – |
| GINLPKDELTAFGRK [p63, M. leprae ML0757c aa 6-20] | p63* | – |
| LILGLLPAI [p61, M. leprae ML0398c aa 16-24] | p61* | specificity of IFN-γ response (PB and HC versus TB, EC, NEC): more specific than longer 15-mer peptide |
| DDFLSLQRSISPNSY [p44, M. leprae ML0126 aa 251-265] | p44* | – |
| VYLYNYLLAETSHVL [p86, M. leprae ML0840c aa 287-301] | p86* | – |
| QLMYLIEITSETKAL [p48, M. leprae ML0394c aa 22-36] | p48* | – |
| DAEWLKLTSLGLRPR [p73, M. leprae ML1829 aa 108-122] | p73* | – |
| QLLGQTADV [p52, M. leprae ML1057 aa 59-67] | p52* | specificity of IFN-γ response (PB and HC versus TB, EC, NEC): specific, inducing good responses in groups PB and HC, and no response in groups TB, EC or NEC |
| LATVQYDDRRRFTKE [p91, M. leprae ML2347 aa 301-315] | p91* | capacity to discriminate PB patients from exposed healthy individuals (HC): discriminate individuals with known infection by Mycobacterium leprae (patients PB) from those individuals exposed to said microorganism, but healthy; comparison of IFN-γ levels between groups (ANOVA, Tukey post hoc): induced the same kind of response |
| LTVVVKQRSKAFRPS [p39, M. leprae ML0008c aa 24-38] | p39* | – |
| MATIRTVRNLKLCNP [p37, M. leprae ML0008c aa 1-15] | – | IFN-γ responses in groups TB and EC: induced unexpected responses in groups EC or TB |
| LLEEGVIVL [p68, M. leprae ML1419c aa 267-275] | p68* | capacity to discriminate PB patients from exposed healthy individuals (HC): discriminate individuals with known infection by Mycobacterium leprae (patients PB) from those individuals exposed to said microorganism, but healthy; comparison of IFN-γ levels between groups (ANOVA, Tukey post hoc): induced the same kind of response |
| TRLLTVVVKQRSKAF [p38, M. leprae ML0008c aa 21-35] | p38* | – |
| LNQLVSLVKQIFVQQ [p47, M. leprae ML0394c aa 73-87] | p47* | – |
| VKAVVDDVNAILLTGR [p74, M. leprae ML1915 aa 89-104] | p74* | – |

| Sequence | IFN-γ response specificity mark (asterisk) | further results |
| --- | --- | --- |
| DSTDTTDWSTAMTDA [p77, M. leprae ML2703 trxB aa 331-335] | p77* | – |
| AAALEQLLGQTADVA [p51, M. leprae ML1057 aa 54-68] | p51* | specificity of IFN-γ response (PB and HC versus TB, EC, NEC): specific, inducing good responses in groups PB and HC, and no response in groups TB, EC or NEC |
| SGRVTYLNPVGVKWM [p67, M. leprae ML1419c aa 51-65] | p67* | capacity to discriminate PB patients from exposed healthy individuals (HC): discriminate individuals with known infection by Mycobacterium leprae (patients PB) from those individuals exposed to said microorganism, but healthy; comparison of IFN-γ levels between groups (ANOVA, Tukey post hoc): higher in PB |
| DATFQVIFSQHVHLS [p83, M. leprae ML0394c aa 97-111] | p83* | – |
| GNAMTTLGGRGISVV [p79, M. leprae ML0098 fbpC aa 84-98] | – | IFN-γ responses in groups TB and EC: induced responses in individuals in groups TB and EC; also recorded: most frequent responses in groups EC or TB |
| VGKVQGLLARLLTLP [p76, M. leprae ML2498 aa 75-89] | p76* | – |
| FDEYRAMFALSAMDL [p56, M. leprae ML0308 aa 17-31] | p56* | – |
| AILYRKIHGQDPAER [p60, M. leprae ML0398c aa 288-302] | – | IFN-γ responses in groups TB and EC: induced responses in individuals in groups TB and EC |
| EAVLLRLDGTTLEVE [p65, M. leprae ML1419c aa 108-122] | p65* | specificity of IFN-γ response (PB and HC versus TB, EC, NEC): specific, inducing good responses in groups PB and HC, and no response in groups TB, EC or NEC |
| THAFDLVLSSHLLFT [p57, M. leprae ML0308 aa 139-153] | – | IFN-γ responses in groups TB and EC: induced responses in individuals in groups TB and EC |
| GRYYAEINSAKMYFG [p49, M. leprae ML1057 aa 10-24] | p49* | – |
| QVIFRDLTTQKAAEE [p66, M. leprae ML1419c aa 137-151] | p66* | – |
| RRTVKILRPLPSNIT [p53, M. leprae ML2567 aa 95-109] | p53* | – |
| RLDGTTLEV [p69, M. leprae ML1419c aa 113-121] | p69* | comparison of IFN-γ levels between groups (ANOVA, Tukey post hoc): significantly higher in HC (p=0.02) and in PB (p=0.01); specificity of IFN-γ response (PB and HC versus TB, EC, NEC): specific, inducing good responses in groups PB and HC, and no response in groups TB, EC or NEC |
| YGQVVRDVENTLRYL [p80, M. leprae ML0126 aa 125-139] | p80* | – |
| LDDFLSLQRSISPNS [p42, M. leprae ML0126 aa 250-264] | p42* | – |
| LQAYSNLFGRTSAMQ [p92, M. leprae ML2452c aa 28-42] | p92* | capacity to discriminate PB patients from exposed healthy individuals (HC): discriminate individuals with known infection by Mycobacterium leprae (patients PB) from those individuals exposed to said microorganism, but healthy; comparison of IFN-γ levels between groups (ANOVA, Tukey post hoc): induced the same kind of response |
| DDIWRTLASAVITGN [p88, M. leprae ML1189c aa 55-69] | p88* | – |
| TIEFLWQEGHSAHIE [p72, M. leprae ML1553 proS aa 154-168] | – | IFN-γ responses in groups TB and EC: induced responses in individuals in groups TB and EC; also recorded: most frequent responses in groups EC or TB |
| GMDVGKVEALKIDGD [p93, M. leprae ML2591 mce1C aa 62-76] | – | IFN-γ responses in groups TB and EC: most frequent responses in groups EC or TB |
